Here are results for four molecules from ChEMBL document CHEMBL5550194, “Design and synthesis of phosphoryl-substituted steroidal pyridazines (Pho-STPYRs) as potent estrogen receptor alpha inhibitors: targeted treatment of hormone-dependent breast cancer cells” (RSC Med Chem, 2024).

Molecules are shown by their SMILES. The source made the active and inactive calls. The rule behind the calls is not given here.

In data set [1] the test system is MCF7. As to the kind of experiment: Antiproliferative activity against estrogen-responsive human MCF7 cells assessed as inhibition of cell growth by MTT assay. Type of data set: functional, cell-based. (In general: Tetrazolium assays rely on reduction of a dye to a coloured formazan, in cell work by metabolically active cells.)
Data set [2] in a line: Cytotoxicity against human THP-1 cells assessed as inhibition of cell growth incubated for 72 hrs by MTT assay. Type of data set: toxicity, cell-based.
The next data set deals with T1, Aromatase (Homo sapiens, UniProt P11511).
T1 sequence (P11511 whole entry): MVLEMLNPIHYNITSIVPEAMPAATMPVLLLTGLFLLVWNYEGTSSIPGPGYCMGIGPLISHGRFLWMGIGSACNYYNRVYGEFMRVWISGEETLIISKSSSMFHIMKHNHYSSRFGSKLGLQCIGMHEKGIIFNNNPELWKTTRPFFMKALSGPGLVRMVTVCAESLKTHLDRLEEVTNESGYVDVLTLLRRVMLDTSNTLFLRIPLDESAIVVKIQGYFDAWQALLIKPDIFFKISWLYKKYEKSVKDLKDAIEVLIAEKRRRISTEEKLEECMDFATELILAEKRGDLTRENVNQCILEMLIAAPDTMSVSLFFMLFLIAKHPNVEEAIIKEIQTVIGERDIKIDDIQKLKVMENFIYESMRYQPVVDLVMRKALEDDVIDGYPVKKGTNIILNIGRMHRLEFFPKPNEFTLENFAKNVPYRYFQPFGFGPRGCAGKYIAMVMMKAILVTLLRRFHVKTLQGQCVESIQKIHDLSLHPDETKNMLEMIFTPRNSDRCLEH
Description: Binding affinity to recombinant human CYP19A1 by spectrophotometric titration method. Format: ADME. Conditions: recombinant enzyme.

Another data set addresses T2, Steroid 21-hydroxylase (Homo sapiens, UniProt P08686).
T2 sequence (P08686 whole entry): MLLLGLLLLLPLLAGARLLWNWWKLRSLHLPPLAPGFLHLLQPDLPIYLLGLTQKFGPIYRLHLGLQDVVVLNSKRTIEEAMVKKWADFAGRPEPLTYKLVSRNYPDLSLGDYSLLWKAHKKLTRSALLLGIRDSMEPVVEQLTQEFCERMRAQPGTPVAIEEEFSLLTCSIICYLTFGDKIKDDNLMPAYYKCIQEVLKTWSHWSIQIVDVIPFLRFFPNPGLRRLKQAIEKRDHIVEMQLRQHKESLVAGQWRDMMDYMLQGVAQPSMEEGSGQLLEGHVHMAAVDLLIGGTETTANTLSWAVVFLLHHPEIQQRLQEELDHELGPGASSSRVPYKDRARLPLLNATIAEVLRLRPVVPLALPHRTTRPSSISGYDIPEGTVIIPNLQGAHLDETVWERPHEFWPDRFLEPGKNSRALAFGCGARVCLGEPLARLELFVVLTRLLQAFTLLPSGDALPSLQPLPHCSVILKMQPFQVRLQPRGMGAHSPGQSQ
Description: Binding affinity to recombinant human CYP21A2 by spectrophotometric titration method. Format: ADME. Conditions: recombinant enzyme.

Data set [3] addresses T3, Cytochrome P450 7A1 (Homo sapiens, UniProt P22680). As to the kind of experiment: Binding affinity to recombinant human CYP7A1 by spectrophotometric titration method. Format: ADME. Conditions: recombinant enzyme.
The subject of data set [4] is MCF7. Description: Antiproliferative activity against human MCF7 cells assessed as inhibition of cell growth incubated for 72 hrs by MTT assay. Type of data set: functional, cell-based. Conditions: MCF7, 72 h.
Data set [5] has as its target T4, Steroid 17-alpha-hydroxylase/17,20 lyase (Homo sapiens, UniProt P05093).
T4 sequence (P05093 whole entry): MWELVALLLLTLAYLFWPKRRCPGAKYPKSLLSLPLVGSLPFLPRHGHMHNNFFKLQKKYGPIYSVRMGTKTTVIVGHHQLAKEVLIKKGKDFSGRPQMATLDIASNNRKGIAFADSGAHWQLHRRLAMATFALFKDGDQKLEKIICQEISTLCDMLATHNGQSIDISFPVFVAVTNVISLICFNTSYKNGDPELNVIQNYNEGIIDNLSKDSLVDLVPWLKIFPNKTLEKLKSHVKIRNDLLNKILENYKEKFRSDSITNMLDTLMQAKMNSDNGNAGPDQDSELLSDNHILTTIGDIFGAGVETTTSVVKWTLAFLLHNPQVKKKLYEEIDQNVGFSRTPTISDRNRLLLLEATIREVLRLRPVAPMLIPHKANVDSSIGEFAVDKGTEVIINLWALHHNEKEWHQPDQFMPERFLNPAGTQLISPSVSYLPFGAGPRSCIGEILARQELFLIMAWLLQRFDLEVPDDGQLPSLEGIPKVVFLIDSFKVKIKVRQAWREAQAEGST
As to the kind of experiment: Binding affinity to recombinant human CYP17A1 by spectrophotometric titration method. Conditions: recombinant enzyme. Type of data set: ADME.

In data set [6] the test system is MCF7. As to the kind of experiment: Effect on E-cadherin protein expression in human MCF7 cells at 1.7 to 15 uM measured after 48 hrs by immunoblot analysis. Type of data set: functional, cell-based. Conditions: dose 1.7-15 µM. On the technique in general: In western blotting, separated proteins are transferred to a membrane and probed.
Data set [7] relates to MDA-MB-231. Description: Antiproliferative activity against human MDA-MB-231 cells assessed as inhibition of cell growth incubated for 72 hrs by MTT assay. The conditions noted are these: MDA-MB-231, 72 h. Type of data set: functional, cell-based.
Data set [8] concerns MCF7. As to the kind of experiment: Induction of cell death in human MCF7 cells assessed as reduction in Bcl-2 protein expression measured after 48 hrs by immunoblot analysis. Conditions: dose 1.7-15 µM. Type of data set: functional, cell-based.
The test system of data set [9] is MCF7. Description: Downregulation of PCNA protein level in human MCF7 cells at 15 uM measured after 48 hrs by immunoblot analysis. Type of data set: functional, cell-based.
The subject of data set [10] is MCF7. As to the kind of experiment: Anti-estrogenic activity in human MCF7 cells assessed as reduction in GREB1 protein expression at 1.7 to 15 uM measured after 48 hrs by immunoblot analysis. Type of data set: functional, cell-based. The conditions noted are these: dose 1.7-15 µM.
Data set [11] concerns MCF7. Description: Downregulation of cyclin D1 protein expression in human MCF7 cells at 1.7 to 15 uM measured after 48 hrs by immunoblot analysis. Conditions: dose 1.7-15 µM. Format: functional, cell-based.
The test system of data set [12] is MCF7. Description: Induction of cell death in human MCF7 cells assessed as accumulation of cleaved PARP level at 1.7 to 15 uM measured after 48 hrs by immunoblot analysis. Format: functional, cell-based. Conditions: dose 1.7-15 µM.
The subject of data set [13] is MCF7. As to the kind of experiment: Synergistic antiproliferative activity against human MCF7 cells assessed as reduction in cell viability at 2.4 uM incubated for 72 hrs in presence of AKT inhibitor IV 6-(2-benzothiazolyl)-1-ethyl-2-[2-(methylphenylamino)ethenyl]-3-phenyl-1H-benzimidazolium mono iodide by MTT assay. Type of data set: functional, cell-based.
For data set [14], the system named is MCF7. Description: Effect on activated AKT protein level in human MCF7 cells at 1.7 to 15 uM measured after 48 hrs by immunoblot analysis. Type of data set: functional, cell-based. Conditions: dose 1.7-15 µM.
Data set [15] concerns MCF7. Description: Anti-estrogenic activity in human MCF7 cells transfected with luciferase gene under control of estrogen response elements cotransfected with beta-galactosidase assessed as reduction in 17beta-estradiol induced ERalpha protein expression by measuring reduction in luciferase activity measured after 24 hrs. Type of data set: functional, cell-based. Conditions: dose 1.7-20 µM.

Data set [16] deals with T5, Cytochrome P450 7B1 (Homo sapiens, UniProt O75881).
T5 sequence (O75881 whole entry): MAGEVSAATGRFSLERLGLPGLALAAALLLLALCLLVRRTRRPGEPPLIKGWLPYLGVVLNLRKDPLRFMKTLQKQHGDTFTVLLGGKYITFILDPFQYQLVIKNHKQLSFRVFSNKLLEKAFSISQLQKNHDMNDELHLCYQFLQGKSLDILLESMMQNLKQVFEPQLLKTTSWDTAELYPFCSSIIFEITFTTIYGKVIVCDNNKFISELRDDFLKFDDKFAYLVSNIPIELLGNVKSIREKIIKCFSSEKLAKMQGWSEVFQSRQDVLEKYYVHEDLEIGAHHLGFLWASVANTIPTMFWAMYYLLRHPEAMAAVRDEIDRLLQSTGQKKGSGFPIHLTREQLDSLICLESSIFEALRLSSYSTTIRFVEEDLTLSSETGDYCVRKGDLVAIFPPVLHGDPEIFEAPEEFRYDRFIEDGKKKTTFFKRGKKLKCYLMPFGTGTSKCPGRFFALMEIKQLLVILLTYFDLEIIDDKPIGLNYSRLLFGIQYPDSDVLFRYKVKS
As to the kind of experiment: Binding affinity to recombinant human CYP7B1 by spectrophotometric titration method. Type of data set: ADME. The conditions noted are these: recombinant enzyme.

Data set [17] concerns MCF7. As to the kind of experiment: Anti-estrogenic activity in human MCF7 cells assessed as reduction in ERalpha protein expression at 1.7 to 15 uM measured after 48 hrs by immunoblot analysis. Format: functional, cell-based. Conditions: dose 1.7-15 µM.
In data set [18] the test system is MCF7. Description: Downregulation of CDK4 protein expression in human MCF7 cells at 1.7 to 15 uM measured after 48 hrs by immunoblot analysis. Type of data set: functional, cell-based. Conditions: dose 1.7-15 µM.
Data set [19] can be described thus: Selectivity index, ratio of IC50 for human THP-1 cells to IC50 for human MCF7 cells.
Data set [20] concerns MDA-MB-231. Description: Antiproliferative activity against estrogen-independent human MDA-MB-231 cells assessed as inhibition of cell growth by MTT assay. Type of data set: functional, cell-based.
The target of data set [21] is T5, Cytochrome P450 7B1. Description: Binding affinity to recombinant human CYP7B1 assessed as substrate-type binding by measuring dissociation constant by spectrophotometric titration method. Format: ADME.
The target of data set [22] is T3, Cytochrome P450 7A1. Description: Binding affinity to recombinant human CYP7A1 assessed as substrate-type binding by measuring dissociation constant by spectrophotometric titration method. Format: ADME.

T3 sequence (P22680 whole entry): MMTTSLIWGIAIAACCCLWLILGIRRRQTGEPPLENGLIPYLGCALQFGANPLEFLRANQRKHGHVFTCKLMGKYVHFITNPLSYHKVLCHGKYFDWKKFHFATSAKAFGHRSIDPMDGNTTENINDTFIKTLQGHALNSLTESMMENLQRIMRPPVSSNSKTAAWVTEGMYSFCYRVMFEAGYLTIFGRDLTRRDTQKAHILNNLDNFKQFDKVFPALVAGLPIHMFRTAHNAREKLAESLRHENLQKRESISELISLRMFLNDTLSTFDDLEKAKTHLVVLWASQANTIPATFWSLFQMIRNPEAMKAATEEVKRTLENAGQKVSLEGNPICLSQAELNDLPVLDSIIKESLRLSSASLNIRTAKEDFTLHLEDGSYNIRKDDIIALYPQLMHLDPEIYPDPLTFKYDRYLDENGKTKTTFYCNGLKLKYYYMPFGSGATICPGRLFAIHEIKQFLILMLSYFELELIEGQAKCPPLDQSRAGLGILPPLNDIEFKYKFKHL

By IC50 is commonly meant the concentration that gives 50% inhibition. Regarding `CC(=O)O[C@H]1CC[C@@]2(C)C(=CC[C@@H]3[C@@H]2CC[C@]2(C)c4c(cnnc4C(=O)Nc4ccc(C(F)(F)F)cc4)C[C@@H]32)C1`, in the data set with MCF7 [1], the IC50 worked out at 4.9 µM.

As for `C[C@]12CCC(=O)C=C1CC[C@@H]1[C@@H]2CC[C@]2(C)c3c(cnnc3P(=O)(Nc3ccccc3)Nc3ccccc3)C[C@@H]12`, the IC50 at 72 h in data set [2] is more than 50 µM. For the same molecule, the Activity entry on Aromatase was “Not Active”; on Steroid 21-hydroxylase it was “Not Active”; at Cytochrome P450 7A1 [3], “Not Active”; in [5] it was “Not Active”; in the data set on MCF7 [8], “Dose-Dependent Effect”; with MCF7 [15], “Dose-Dependent Effect”. Further, the Activity result at Cytochrome P450 7B1 [16] is reported as “Not Active”. The 50% inhibitory concentration (IC50) with MCF7 [4] came out at 5.9 µM; with MDA-MB-231 [7] it was 22 µM. Moreover, the outcome with MCF7 [6] and with MCF7 [14] was inactive. For the same molecule, the result in the data set on MCF7 [9], in the data set with MCF7 [10], with MCF7 [11], in the data set on MCF7 [12], in the data set on MCF7 [13] and in the data set with MCF7 [17] was Active. Besides, the outcome in the data set with MCF7 [18] was Active. For the same molecule, in [19], the “Ratio IC50” value is reported as more than 8.5.

For the molecule `COc1ccc(NC(=O)c2nncc3c2[C@@]2(C)CC[C@H]4[C@@H](CC=C5C[C@@H](OC(C)=O)CC[C@@]54C)[C@@H]2C3)cc1`, the concentration for half-maximal inhibition (IC50) in the data set with MDA-MB-231 [20] worked out at 12.5 µM.

As usually defined, the Kd is the concentration at which binding is half-saturated. Consider `CC(C)(C)NP(=O)(NC(C)(C)C)c1nncc2c1CC1CC[C@H]3[C@@H]4CC[C@H](O)[C@@]4(C)CC[C@@H]3[C@@]1(C)C2` (stereo partly specified), for which the IC50 in the data set with MCF7 [4] was 22.1 µM; with MDA-MB-231 [7], more than 25 µM. The figures for the dissociation constant Kd at Cytochrome P450 7B1 [21] and on Cytochrome P450 7A1 [22] were 1.7 µM and 2.1 µM, respectively.
